Measurements: patent US20260347338A1, “PYRIMIDINE/PYRIDINE DERIVATIVES OR SALTS THEREOF AND PHARMACEUTICAL COMPOSITIONS COMPRISING THE SAME” (YUHAN CORPORATION, priority 2023, published 2026)
Where a name gives a salt, the structure may show the parent alone.

biological target: T1, human recombinant HPK1 (Homo sapiens, UniProt Q92918); assay: Inhibitory activity against human recombinant HPK1 (TR-FRET); assay type: biochemical; conditions: ULight-p70S6K peptide, ATP at Km, room temperature, 1 hour, 0.32 to 1000 nM compound
T1 construct: purchased BPS Bioscience
T1 sequence (Q92918 whole entry): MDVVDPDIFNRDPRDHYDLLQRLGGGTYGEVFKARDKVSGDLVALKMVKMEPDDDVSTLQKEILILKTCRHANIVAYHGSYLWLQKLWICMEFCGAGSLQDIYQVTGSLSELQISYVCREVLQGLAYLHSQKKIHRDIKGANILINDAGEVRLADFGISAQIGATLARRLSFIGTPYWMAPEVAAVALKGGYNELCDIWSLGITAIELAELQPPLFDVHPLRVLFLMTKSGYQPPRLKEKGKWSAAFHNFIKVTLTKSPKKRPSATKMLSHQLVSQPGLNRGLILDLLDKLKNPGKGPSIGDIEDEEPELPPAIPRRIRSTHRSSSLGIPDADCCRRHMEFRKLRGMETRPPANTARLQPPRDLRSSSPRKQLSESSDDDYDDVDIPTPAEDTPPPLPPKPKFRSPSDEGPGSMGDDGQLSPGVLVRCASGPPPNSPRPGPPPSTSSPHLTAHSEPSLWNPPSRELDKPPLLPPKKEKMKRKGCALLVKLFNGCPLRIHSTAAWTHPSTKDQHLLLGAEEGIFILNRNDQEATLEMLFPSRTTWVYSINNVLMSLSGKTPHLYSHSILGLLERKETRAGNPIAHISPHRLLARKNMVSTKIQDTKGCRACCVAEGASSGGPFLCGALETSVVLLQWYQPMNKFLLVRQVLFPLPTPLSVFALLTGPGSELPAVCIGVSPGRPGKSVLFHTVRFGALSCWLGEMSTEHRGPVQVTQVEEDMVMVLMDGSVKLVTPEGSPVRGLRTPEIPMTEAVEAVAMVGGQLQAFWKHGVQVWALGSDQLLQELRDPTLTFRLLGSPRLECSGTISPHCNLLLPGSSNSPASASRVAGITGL
Procedure, shortened: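 IC50 classes A–D use 10, 50 and 100 nM cut-offs, derived from TR-FRET signal inhibition relative to DMSO controls. Human recombinant HPK1 phosphorylated ULight-p70S6K peptide at Km ATP for 1 h, room temperature, pH 7.4; test range 0.32–1000 nM final, detection with Eu-labelled antibody after EDTA quench.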

Row | IC50 | Compound
1 | ≤ 10 nM | COc1cccc(F)c1-c1nc(Nc2cc(N3CCC[C@H](N)C3)c(-c3cnn(CC(F)(F)F)c3)cn2)ccc1[N+](=O)[O-] [Example 153, 4-((S)-3-aminopiperidin-1-yl)-N-(6-(2-fluoro-6-methoxyphenyl)-5-nitropyridin-2-yl)-5-(1-(2,2,2-trifluoroethyl)-1H-pyrazol-4-yl)pyridin-2-amine hydrochloride]
2 | ≤ 10 nM | COc1cccc(F)c1-c1nc(Nc2cc(N3CCC[C@H](N)C3)c(-c3cnn(C(F)(F)F)c3)cn2)ccc1[N+](=O)[O-] [Example 154, 4-((S)-3-aminopiperidin-1-yl)-N-(6-(2-fluoro-6-methoxyphenyl)-5-nitropyridin-2-yl)-5-(1-(trifluoromethyl)-1H-pyrazol-4-yl)pyridin-2-amine hydrochloride]
3 | ≤ 10 nM | COc1cccc(F)c1-c1nc(Nc2cc(N3CCC[C@H](N)C3)c(C#CC3CCOCC3)cn2)ccc1[N+](=O)[O-] [Example 155, 4-((S)-3-aminopiperidin-1-yl)-N-(6-(2-fluoro-6-methoxyphenyl)-5-nitropyridin-2-yl)-5-((tetrahydro-2H-pyran-4-yl)ethynyl)pyridin-2-amine hydrochloride]
4 | ≤ 10 nM | COc1cccc(F)c1-c1nc(Nc2cc(N3CCC[C@H](N)C3)c(C#Cc3cnn(C(F)(F)F)c3)cn2)ccc1[N+](=O)[O-] [Example 156, 4-((S)-3-aminopiperidin-1-yl)-N-(6-(2-fluoro-6-methoxyphenyl)-5-nitropyridin-2-yl)-5-((1-(trifluoromethyl)-1H-pyrazol-4-yl)ethynyl)pyridin-2-amine hydrochloride]
5 | ≤ 10 nM | COc1cc(F)cc(F)c1-c1nccc(Nc2cc(N3CCC[C@H](N)C3)c(-c3cnn(C(F)(F)F)c3)cn2)n1 [Example 157, (S)-N-(4-(3-aminopiperidin-1-yl)-5-(1-(trifluoromethyl)-1H-pyrazol-4-yl)pyridin-2-yl)-2-(2,4-difluoro-6-methoxyphenyl)pyrimidin-4-amine hydrochloride]
6 | ≤ 10 nM | COc1cc(F)cc(F)c1-c1nccc(Nc2cc(N3CCC[C@H](N)C3)c(-c3cnn(CC(F)F)c3)cn2)n1 [Example 158, (S)-N-(4-(3-aminopiperidin-1-yl)-5-(1-(2,2-difluoroethyl)-1H-pyrazol-4-yl)pyridin-2-yl)-2-(2,4-difluoro-6-methoxyphenyl)pyrimidin-4-amine hydrochloride]
7 | ≤ 10 nM | COc1cc(F)cc(F)c1-c1nccc(Nc2cc(N3CCC[C@H](N)C3)c(C#Cc3cnn(C(F)(F)F)c3)cn2)n1 [Example 159, (S)-N-(4-(3-aminopiperidin-1-yl)-5-((1-(trifluoromethyl)-1H-pyrazol-4-yl)ethynyl)pyridin-2-yl)-2-(2,4-difluoro-6-methoxyphenyl)pyrimidin-4-amine hydrochloride]
8 | ≤ 10 nM | COc1cccc(F)c1-c1nc(Nc2cc(N3CCC[C@H](O)C3)c(-c3cnn(CC(F)F)c3)cn2)ccc1C(N)=O [Example 160, 6-((5-(1-(2,2-difluoroethyl)-1H-pyrazol-4-yl)-4-((S)-3-hydroxypiperidin-1-yl)pyridin-2-yl)amino)-2-(2-fluoro-6-methoxyphenyl)nicotinamide]
9 | ≤ 10 nM | COc1cc(CO)cc(F)c1-c1nccc(Nc2cc(N3CCC[C@H](O)C3)c(-c3cnn(C4CCOCC4)c3)cn2)n1 [Example 161, (S)-1-(2-((2-(2-fluoro-4-(hydroxymethyl)-6-methoxyphenyl)pyrimidin-4-yl)amino)-5-(1-(tetrahydro-2H-pyran-4-yl)-1H-pyrazol-4-yl)pyridin-4-yl)piperidin-3-ol]
10 | ≤ 10 nM | COc1cccc(F)c1-c1nccc(Nc2cc(N3CCC[C@H](N)C3)c(-c3cnn(CCN4CCOCC4)c3)cn2)n1 [Example 162, (S)-N-(4-(3-aminopiperidin-1-yl)-5-(1-(2-morpholinoethyl)-1H-pyrazol-4-yl)pyridin-2-yl)-2-(2-fluoro-6-methoxyphenyl)pyrimidin-4-amine hydrochloride]
11 | ≤ 10 nM | COc1cccc(F)c1-c1nccc(Nc2cc(N3CCC[C@H](N)C3)c(-c3cnn(CCN4CCCC4)c3)cn2)n1 [Example 163, (S)-N-(4-(3-aminopiperidin-1-yl)-5-(1-(2-(pyrrolidin-1-yl)ethyl)-1H-pyrazol-4-yl)pyridin-2-yl)-2-(2-fluoro-6-methoxyphenyl)pyrimidin-4-amine hydrochloride]
12 | ≤ 10 nM | COc1cccc(F)c1-c1nccc(Nc2cc(N3CCC[C@H](N)C3)c(C#Cc3cnn(C(F)F)c3)cn2)n1 [Example 164, (S)-N-(4-(3-aminopiperidin-1-yl)-5-((1-(difluoromethyl)-1H-pyrazol-4-yl)ethynyl)pyridin-2-yl)-2-(2-fluoro-6-methoxyphenyl)pyrimidin-4-amine hydrochloride]
13 | ≤ 10 nM | COc1cccc(F)c1-c1nccc(Nc2cc(N3CCC[C@H](N)C3)c(C#Cc3cnn(CC(F)F)c3)cn2)n1 [Example 165, (S)-N-(4-(3-aminopiperidin-1-yl)-5-((1-(2,2-difluoroethyl)-1H-pyrazol-4-yl)ethynyl)pyridin-2-yl)-2-(2-fluoro-6-methoxyphenyl)pyrimidin-4-amine hydrochloride]
14 | ≤ 10 nM | COc1cccc(F)c1-c1nccc(Nc2cc(N3CCC[C@H](N)C3)c(C#Cc3cnn(CC(F)(F)F)c3)cn2)n1 [Example 166, (S)-N-(4-(3-aminopiperidin-1-yl)-5-((1-(2,2,2-trifluoroethyl)-1H-pyrazol-4-yl)ethynyl)pyridin-2-yl)-2-(2-fluoro-6-methoxyphenyl)pyrimidin-4-amine hydrochloride]
15 | ≤ 10 nM | COc1cccc(F)c1-c1nccc(Nc2cc(N3CCC[C@H](N)C3)c(-c3cnn(CCC(N)=O)c3)cn2)n1 [Example 167, (S)-3-(4-(4-(3-aminopiperidin-1-yl)-6-((2-(2-fluoro-6-methoxyphenyl)pyrimidin-4-yl)amino)pyridin-3-yl)-1H-pyrazol-1-yl)propanamide hydrochloride]
16 | ≤ 10 nM | COc1cccc(F)c1-c1nccc(Nc2cc(N3CCC[C@H](N)C3)c(-c3cnn(C4CNC4)c3)cn2)n1 [Example 168, (S)-N-(4-(3-aminopiperidin-1-yl)-5-(1-(azetidin-3-yl)-1H-pyrazol-4-yl)pyridin-2-yl)-2-(2-fluoro-6-methoxyphenyl)pyrimidin-4-amine hydrochloride]
17 | ≤ 10 nM | COc1cccc(F)c1-c1nc(Nc2cc(N3CCC[C@H](N)C3)c(-c3cnn(CC(F)F)c3)cn2)ccc1N [Example 169, N^2-(4-((S)-3-aminopiperidin-1-yl)-5-(1-(2,2-difluoroethyl)-1H-pyrazol-4-yl)pyridin-2-yl)-6-(2-fluoro-6-methoxyphenyl)pyridin-2,5-diamine hydrochloride]
18 | ≤ 10 nM | COc1cccc(F)c1-c1nc(Nc2cc(N3CCC[C@H](N)C3)c(-c3cnn(CC(F)(F)F)c3)cn2)ccc1N [Example 170, N^2-(4-((S)-3-aminopiperidin-1-yl)-5-(1-(2,2,2-trifluoroethyl)-1H-pyrazol-4-yl)pyridin-2-yl)-6-(2-fluoro-6-methoxyphenyl)pyridin-2,5-diamine hydrochloride]
19 | ≤ 10 nM | COc1cc(F)cc(F)c1-c1nccc(Nc2cc(N3CCC[C@H](O)C3)c(-c3cnn(C(F)(F)F)c3)cn2)n1 [Example 171, (S)-1-(2-((2-(2,4-difluoro-6-methoxyphenyl)pyrimidin-4-yl)amino)-5-(1-(trifluoromethyl)-1H-pyrazol-4-yl)pyridin-4-yl)piperidin-3-ol]
